Results as given in ChEMBL document CHEMBL3991601, “The target landscape of clinical kinase drugs” (Science, 2017).
The source made the active and inactive calls. Cut-off read from the data, not from the text of the source, for most assays here: actives have a measured Kd and inactives only a lower limit.

Legend:
[1] = target: Tyrosine-protein kinase BTK (Homo sapiens, UniProt Q06187)
[2] = target: Casein kinase I isoform alpha (Homo sapiens, UniProt P48729)
[3] = target: Epithelial discoidin domain-containing receptor 1 (Homo sapiens, UniProt Q08345)
[4] = target: Tyrosine-protein kinase FRK (Homo sapiens, UniProt P42685)
[5] = target: T1, Dual specificity mitogen-activated protein kinase kinase 5 (Homo sapiens, UniProt Q13163)
T1 sequence (Q13163 whole entry): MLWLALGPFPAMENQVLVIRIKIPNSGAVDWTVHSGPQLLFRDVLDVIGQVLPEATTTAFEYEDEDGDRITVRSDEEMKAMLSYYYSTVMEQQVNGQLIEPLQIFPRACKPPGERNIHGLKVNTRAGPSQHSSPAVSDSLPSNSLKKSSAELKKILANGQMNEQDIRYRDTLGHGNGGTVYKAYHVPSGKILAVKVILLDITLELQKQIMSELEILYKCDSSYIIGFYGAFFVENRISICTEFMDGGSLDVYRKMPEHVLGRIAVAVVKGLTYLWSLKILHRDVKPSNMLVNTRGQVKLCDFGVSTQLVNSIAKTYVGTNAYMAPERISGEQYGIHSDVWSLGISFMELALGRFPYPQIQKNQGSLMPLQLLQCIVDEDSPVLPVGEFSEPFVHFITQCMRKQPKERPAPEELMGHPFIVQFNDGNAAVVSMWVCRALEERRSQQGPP

[6] = target: T2, Mitogen-activated protein kinase kinase kinase kinase 3 (Homo sapiens, UniProt Q8IVH8)
T2 sequence (Q8IVH8 whole entry): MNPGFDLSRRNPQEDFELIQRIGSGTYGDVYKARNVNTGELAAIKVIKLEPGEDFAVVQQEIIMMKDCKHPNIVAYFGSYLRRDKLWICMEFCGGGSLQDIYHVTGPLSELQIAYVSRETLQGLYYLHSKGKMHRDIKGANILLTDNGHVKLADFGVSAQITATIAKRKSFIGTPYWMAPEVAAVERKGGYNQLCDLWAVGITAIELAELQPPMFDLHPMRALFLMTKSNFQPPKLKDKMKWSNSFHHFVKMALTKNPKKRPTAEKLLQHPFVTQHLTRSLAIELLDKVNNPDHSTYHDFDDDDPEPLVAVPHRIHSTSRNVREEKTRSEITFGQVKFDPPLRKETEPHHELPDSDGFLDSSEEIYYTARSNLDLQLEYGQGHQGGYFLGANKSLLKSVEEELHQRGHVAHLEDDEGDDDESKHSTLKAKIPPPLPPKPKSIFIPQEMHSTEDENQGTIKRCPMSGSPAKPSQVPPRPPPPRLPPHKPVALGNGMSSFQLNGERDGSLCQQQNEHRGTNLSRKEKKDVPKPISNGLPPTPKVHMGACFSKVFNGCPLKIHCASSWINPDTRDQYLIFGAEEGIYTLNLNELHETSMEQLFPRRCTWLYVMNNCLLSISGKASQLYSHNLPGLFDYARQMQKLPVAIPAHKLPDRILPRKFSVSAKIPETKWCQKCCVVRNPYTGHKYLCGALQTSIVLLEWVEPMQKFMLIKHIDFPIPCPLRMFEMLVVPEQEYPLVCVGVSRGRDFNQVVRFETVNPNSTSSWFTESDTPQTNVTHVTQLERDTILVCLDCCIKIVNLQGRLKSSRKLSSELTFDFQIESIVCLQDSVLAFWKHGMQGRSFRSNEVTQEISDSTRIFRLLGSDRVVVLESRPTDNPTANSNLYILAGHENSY

[7] = target: Hepatocyte growth factor receptor (Homo sapiens, UniProt P08581)
[8] = target: T3, Membrane-associated tyrosine- and threonine-specific cdc2-inhibitory kinase (Homo sapiens, UniProt Q99640)
T3 sequence (Q99640 whole entry): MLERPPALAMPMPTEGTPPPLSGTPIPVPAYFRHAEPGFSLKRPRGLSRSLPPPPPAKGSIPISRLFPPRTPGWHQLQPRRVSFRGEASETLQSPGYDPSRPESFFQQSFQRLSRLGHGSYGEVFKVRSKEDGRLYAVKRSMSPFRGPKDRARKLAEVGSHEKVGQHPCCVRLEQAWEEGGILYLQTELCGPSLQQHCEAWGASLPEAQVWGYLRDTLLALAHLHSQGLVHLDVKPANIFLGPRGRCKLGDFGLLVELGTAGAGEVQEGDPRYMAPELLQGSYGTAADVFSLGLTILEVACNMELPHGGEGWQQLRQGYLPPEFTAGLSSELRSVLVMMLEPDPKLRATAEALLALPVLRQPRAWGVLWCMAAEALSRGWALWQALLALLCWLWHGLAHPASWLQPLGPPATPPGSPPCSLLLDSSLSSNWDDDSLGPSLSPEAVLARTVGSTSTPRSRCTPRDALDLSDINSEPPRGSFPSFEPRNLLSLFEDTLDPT

[9] = target: 26S proteasome regulatory subunit 6B (Homo sapiens, UniProt P43686)
Septin-9 = target: T4, Septin-9 (Homo sapiens, UniProt Q9UHD8)
T4 sequence (Q9UHD8 whole entry): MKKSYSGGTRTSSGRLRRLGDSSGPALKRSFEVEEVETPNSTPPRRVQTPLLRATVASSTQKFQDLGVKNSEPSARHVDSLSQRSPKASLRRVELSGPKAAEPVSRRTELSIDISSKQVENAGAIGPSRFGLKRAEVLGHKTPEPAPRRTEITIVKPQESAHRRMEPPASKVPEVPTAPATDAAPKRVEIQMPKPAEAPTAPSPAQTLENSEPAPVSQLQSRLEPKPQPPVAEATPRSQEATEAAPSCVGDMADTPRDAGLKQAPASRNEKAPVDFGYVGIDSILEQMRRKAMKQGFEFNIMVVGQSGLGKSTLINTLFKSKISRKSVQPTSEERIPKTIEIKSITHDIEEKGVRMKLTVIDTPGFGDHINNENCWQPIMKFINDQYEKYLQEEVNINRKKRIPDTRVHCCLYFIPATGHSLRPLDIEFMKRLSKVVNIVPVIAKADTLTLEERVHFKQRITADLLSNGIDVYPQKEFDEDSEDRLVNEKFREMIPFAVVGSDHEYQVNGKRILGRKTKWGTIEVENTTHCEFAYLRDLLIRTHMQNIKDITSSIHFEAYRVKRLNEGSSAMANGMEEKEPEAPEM

[10] = target: Non-receptor tyrosine-protein kinase TYK2 (Homo sapiens, UniProt P29597)
Note: in the data inactive means no Kd found up to 30 µM.

Sequence of Epithelial discoidin domain-containing receptor 1 (Q08345 whole entry, the tested form may be a part): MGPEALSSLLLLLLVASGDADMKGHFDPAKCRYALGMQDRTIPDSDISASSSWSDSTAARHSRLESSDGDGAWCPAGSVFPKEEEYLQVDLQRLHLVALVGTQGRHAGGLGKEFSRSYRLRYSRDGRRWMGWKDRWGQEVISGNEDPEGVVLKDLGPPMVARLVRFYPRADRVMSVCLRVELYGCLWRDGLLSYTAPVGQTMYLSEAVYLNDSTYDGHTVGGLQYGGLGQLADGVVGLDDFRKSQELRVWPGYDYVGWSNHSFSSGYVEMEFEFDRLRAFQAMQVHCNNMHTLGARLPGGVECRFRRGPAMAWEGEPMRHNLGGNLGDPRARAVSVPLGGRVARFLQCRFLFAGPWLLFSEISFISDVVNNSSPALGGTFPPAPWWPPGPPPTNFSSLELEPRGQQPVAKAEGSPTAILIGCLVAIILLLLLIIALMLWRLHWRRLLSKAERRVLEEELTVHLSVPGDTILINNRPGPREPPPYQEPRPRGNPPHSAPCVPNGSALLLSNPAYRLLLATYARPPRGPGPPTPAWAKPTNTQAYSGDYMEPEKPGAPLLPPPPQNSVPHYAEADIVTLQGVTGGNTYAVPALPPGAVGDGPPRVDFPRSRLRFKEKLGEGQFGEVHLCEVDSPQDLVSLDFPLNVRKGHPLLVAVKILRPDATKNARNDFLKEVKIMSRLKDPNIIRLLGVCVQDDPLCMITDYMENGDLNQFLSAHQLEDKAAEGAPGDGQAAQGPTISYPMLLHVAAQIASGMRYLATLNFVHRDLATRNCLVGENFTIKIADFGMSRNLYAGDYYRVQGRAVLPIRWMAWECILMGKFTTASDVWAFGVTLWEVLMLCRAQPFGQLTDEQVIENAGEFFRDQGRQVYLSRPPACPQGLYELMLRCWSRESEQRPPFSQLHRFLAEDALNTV
Sequence of Tyrosine-protein kinase FRK (P42685 whole entry): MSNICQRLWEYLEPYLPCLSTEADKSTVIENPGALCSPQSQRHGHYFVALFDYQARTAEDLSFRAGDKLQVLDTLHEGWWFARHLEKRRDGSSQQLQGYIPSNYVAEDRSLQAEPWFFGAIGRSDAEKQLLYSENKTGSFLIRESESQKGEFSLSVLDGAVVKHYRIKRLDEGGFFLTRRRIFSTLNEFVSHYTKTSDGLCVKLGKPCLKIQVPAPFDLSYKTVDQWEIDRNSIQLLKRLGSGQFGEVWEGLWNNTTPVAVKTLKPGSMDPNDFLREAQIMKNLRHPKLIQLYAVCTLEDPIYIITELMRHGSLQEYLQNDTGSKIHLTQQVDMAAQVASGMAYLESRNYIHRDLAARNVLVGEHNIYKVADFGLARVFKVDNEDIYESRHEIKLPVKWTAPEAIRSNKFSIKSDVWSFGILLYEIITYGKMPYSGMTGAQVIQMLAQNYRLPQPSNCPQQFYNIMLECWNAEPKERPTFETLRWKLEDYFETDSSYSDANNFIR
Sequence of Casein kinase I isoform alpha (P48729 whole entry, the tested form may be a part, canonical isoform): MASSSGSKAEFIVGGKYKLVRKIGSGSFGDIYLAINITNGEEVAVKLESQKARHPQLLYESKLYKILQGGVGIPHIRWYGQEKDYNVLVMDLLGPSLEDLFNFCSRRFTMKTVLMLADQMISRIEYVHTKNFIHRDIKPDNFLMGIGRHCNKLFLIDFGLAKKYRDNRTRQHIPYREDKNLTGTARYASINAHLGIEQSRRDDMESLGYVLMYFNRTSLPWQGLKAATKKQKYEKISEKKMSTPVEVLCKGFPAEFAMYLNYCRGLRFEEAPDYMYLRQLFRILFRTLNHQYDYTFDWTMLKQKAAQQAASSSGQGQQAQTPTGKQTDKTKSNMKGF
Sequence of Hepatocyte growth factor receptor (P08581 whole entry): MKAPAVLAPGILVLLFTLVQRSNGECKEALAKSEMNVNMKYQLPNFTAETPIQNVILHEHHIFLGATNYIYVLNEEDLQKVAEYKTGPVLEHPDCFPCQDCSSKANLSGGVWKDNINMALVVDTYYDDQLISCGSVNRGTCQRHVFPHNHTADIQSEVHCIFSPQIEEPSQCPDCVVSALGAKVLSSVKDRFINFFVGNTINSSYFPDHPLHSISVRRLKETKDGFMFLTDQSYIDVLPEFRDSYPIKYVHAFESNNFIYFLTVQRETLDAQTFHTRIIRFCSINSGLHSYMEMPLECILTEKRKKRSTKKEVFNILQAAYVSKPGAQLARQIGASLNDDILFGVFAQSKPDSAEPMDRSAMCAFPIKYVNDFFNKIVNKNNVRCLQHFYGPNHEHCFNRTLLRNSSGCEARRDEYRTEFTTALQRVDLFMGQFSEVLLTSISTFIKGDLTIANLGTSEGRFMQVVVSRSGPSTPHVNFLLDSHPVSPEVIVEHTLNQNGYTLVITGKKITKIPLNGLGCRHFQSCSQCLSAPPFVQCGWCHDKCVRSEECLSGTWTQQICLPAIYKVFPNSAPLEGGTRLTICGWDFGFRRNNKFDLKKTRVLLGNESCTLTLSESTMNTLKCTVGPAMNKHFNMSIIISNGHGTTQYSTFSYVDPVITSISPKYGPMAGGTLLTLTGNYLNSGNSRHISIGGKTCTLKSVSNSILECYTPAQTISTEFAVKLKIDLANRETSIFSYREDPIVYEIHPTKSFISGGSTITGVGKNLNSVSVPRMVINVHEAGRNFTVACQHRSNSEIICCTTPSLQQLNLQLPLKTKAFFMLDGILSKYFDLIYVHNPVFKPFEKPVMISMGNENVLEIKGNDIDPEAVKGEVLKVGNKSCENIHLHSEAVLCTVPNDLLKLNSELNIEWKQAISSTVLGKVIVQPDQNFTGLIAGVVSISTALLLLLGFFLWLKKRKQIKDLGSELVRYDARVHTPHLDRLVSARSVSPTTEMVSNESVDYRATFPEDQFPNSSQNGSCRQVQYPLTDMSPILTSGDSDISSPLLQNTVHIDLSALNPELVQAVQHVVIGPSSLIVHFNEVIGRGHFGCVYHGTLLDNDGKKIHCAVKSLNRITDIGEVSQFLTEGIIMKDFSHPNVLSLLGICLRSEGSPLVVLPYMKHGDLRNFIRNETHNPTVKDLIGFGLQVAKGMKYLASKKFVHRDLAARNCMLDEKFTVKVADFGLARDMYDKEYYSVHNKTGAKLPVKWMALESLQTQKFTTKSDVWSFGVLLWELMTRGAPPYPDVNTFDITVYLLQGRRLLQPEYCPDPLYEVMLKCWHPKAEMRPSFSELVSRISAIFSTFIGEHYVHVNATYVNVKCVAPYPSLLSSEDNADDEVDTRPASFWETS
Sequence of 26S proteasome regulatory subunit 6B (P43686 whole entry): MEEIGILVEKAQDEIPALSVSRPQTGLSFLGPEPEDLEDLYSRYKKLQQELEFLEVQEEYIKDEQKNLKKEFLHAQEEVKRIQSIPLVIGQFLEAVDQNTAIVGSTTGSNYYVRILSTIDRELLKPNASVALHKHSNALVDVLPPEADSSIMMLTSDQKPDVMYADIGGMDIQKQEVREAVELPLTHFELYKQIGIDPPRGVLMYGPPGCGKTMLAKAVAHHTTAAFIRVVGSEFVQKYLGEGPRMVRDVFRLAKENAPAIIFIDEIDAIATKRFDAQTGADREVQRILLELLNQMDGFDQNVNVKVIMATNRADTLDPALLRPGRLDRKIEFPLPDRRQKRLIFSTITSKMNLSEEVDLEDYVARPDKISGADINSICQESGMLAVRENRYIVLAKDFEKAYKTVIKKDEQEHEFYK
Sequence of Non-receptor tyrosine-protein kinase TYK2 (P29597 whole entry): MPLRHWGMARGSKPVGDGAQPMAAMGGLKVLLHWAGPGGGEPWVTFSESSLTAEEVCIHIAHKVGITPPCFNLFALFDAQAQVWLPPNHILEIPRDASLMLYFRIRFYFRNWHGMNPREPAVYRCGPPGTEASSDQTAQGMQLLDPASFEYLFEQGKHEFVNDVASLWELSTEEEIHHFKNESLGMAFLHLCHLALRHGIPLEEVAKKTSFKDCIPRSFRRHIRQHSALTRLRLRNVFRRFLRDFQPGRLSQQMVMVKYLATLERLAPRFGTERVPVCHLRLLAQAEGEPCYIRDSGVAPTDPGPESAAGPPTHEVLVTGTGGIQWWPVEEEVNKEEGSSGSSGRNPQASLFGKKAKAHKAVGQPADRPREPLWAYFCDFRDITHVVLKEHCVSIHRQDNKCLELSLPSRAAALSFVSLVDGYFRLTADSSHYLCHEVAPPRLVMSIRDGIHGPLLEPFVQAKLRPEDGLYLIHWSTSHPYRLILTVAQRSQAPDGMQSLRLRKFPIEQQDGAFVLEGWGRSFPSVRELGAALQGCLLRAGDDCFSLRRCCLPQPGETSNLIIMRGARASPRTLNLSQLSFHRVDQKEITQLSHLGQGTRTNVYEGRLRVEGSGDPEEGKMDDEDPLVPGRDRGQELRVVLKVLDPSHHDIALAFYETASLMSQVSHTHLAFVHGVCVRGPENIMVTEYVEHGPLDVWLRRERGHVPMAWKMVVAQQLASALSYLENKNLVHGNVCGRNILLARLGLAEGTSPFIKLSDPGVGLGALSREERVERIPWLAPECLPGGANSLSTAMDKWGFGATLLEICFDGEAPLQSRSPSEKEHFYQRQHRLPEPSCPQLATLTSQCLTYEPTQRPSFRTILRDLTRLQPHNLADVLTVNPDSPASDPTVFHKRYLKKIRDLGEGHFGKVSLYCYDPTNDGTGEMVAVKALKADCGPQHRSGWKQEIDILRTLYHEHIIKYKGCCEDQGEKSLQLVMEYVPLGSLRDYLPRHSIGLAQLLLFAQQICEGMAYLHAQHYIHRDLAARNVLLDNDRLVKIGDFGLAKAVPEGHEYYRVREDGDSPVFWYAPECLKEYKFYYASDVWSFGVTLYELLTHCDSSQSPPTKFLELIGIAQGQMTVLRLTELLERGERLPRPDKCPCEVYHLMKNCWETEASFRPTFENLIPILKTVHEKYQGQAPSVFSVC

| SMILES | Kd [1] | Kd [2] | Kd [3] | Kd [4] | Kd [5] | Kd [6] | Kd [7] | Kd [8] | Kd [9] | Kd (Septin-9) | Kd [10] |
| --- | --- | --- | --- | --- | --- | --- | --- | --- | --- | --- | --- |
| Cc1nc2cc(-n3ncc(C(=O)c4cc5ccccc5[nH]4)c3N)ccc2[nH]1 [FGFR INHIBITOR DEBIO 1347] | > 30 µM (inactive) | > 30 µM (inactive) | > 30 µM (inactive) | > 30 µM (inactive) | > 30 µM (inactive) | > 30 µM (inactive) | > 30 µM (inactive) | > 30 µM (inactive) | > 30 µM (inactive) | > 30 µM (inactive) | > 30 µM (inactive) |
| COc1ccc(S(=O)(=O)N(C(C)=O)c2ccccc2/C=C/c2cc[n+]([O-])cc2)cc1 [HMN-214] | > 30 µM (inactive) | > 30 µM (inactive) | > 30 µM (inactive) | > 30 µM (inactive) | > 30 µM (inactive) | > 30 µM (inactive) | 1.39 µM | > 30 µM (inactive) | > 30 µM (inactive) | > 30 µM (inactive) | > 30 µM (inactive) |
| O=C(Nc1cc(C(F)(F)F)cc(C(F)(F)F)c1)c1cc(Cl)ccc1O [IMD-0354] | > 30 µM (inactive) | > 30 µM (inactive) | > 30 µM (inactive) | > 30 µM (inactive) | > 30 µM (inactive) | > 30 µM (inactive) | > 30 µM (inactive) | > 30 µM (inactive) | > 30 µM (inactive) | > 30 µM (inactive) | > 30 µM (inactive) |
| CNC(=O)c1cccc2cc(Oc3ccnc4cc(OCC5(N)CC5)c(OC)cc34)ccc12 [LUCITANIB] | > 30 µM (inactive) | > 30 µM (inactive) | 0.014 µM (active) | > 30 µM (inactive) | > 30 µM (inactive) | > 30 µM (inactive) | > 30 µM (inactive) | > 30 µM (inactive) | > 30 µM (inactive) | > 30 µM (inactive) | > 30 µM (inactive) |
| NC1(c2ccc(-c3nc4ccn5c(=O)[nH]nc5c4cc3-c3ccccc3)cc2)CCC1 [MK-2206] | > 30 µM (inactive) | > 30 µM (inactive) | > 30 µM (inactive) | > 30 µM (inactive) | > 30 µM (inactive) | > 30 µM (inactive) | > 30 µM (inactive) | > 30 µM (inactive) | > 30 µM (inactive) | > 30 µM (inactive) | > 30 µM (inactive) |
| CN(C[C@@H]1COCCO1)S(=O)(=O)Nc1ccc2ccc3ncc(-c4cnn(C)c4)cc3c(=O)c2c1 [MK-2461] | > 30 µM (inactive) | > 30 µM (inactive) | > 30 µM (inactive) | > 30 µM (inactive) | > 30 µM (inactive) | > 30 µM (inactive) | > 30 µM (inactive) | > 30 µM (inactive) | > 30 µM (inactive) | > 30 µM (inactive) | > 30 µM (inactive) |
| FC(F)(F)c1ccc(/C=C/c2nc(COc3ccc(CCCCn4ccnn4)cc3)co2)cc1 [MUBRITINIB] | > 30 µM (inactive) | > 30 µM (inactive) | > 30 µM (inactive) | > 30 µM (inactive) | > 30 µM (inactive) | > 30 µM (inactive) | > 30 µM (inactive) | > 30 µM (inactive) | > 30 µM (inactive) | > 30 µM (inactive) | > 30 µM (inactive) |
| Cc1nc(Nc2n[nH]c3c2CN(C(=O)N[C@H](CN(C)C)c2ccccc2)C3(C)C)c2sccc2n1 [PF-03758309] | 1.23 µM | > 30 µM (inactive) | > 30 µM (inactive) | > 30 µM (inactive) | > 30 µM (inactive) | 2.19 µM (active) | > 30 µM (inactive) | > 30 µM (inactive) | > 30 µM (inactive) | > 30 µM (inactive) | > 30 µM (inactive) |
| Cc1cnc(NC(=O)Nc2cc(Br)c(C)cc2OC[C@@H]2CNCCO2)cn1 [RABUSERTIB] | > 30 µM (inactive) | > 30 µM (inactive) | > 30 µM (inactive) | > 30 µM (inactive) | > 30 µM (inactive) | > 30 µM (inactive) | > 30 µM (inactive) | > 30 µM (inactive) | > 30 µM (inactive) | > 30 µM (inactive) | > 30 µM (inactive) |
| CO[C@H]1C[C@@H]2CC[C@@H](C)[C@@](O)(O2)C(=O)C(=O)N2CCCC[C@H]2C(=O)O[C@H]([C@H](C)C[C@@H]2CC[C@@H](OP(C)(C)=O)[C@H](OC)C2)CC(=O)[C@H](C)/C=C(\C)[C@@H](O)[C@@H](OC)C(=O)[C@H](C)C[C@H](C)/C=C/C=C/C=C/1C [RIDAFOROLIMUS] | > 30 µM (inactive) | > 30 µM (inactive) | > 30 µM (inactive) | > 30 µM (inactive) | > 30 µM (inactive) | > 30 µM (inactive) | > 30 µM (inactive) | > 30 µM (inactive) | > 30 µM (inactive) | > 30 µM (inactive) | > 30 µM (inactive) |
| N#CC1(c2ccc(NC(=O)c3cccnc3NCc3ccncc3)cc2)CCCC1 [RIVOCERANIB] | > 30 µM (inactive) | > 30 µM (inactive) | > 30 µM (inactive) | > 30 µM (inactive) | > 30 µM (inactive) | > 30 µM (inactive) | > 30 µM (inactive) | > 30 µM (inactive) | > 30 µM (inactive) | > 30 µM (inactive) | > 30 µM (inactive) |
| O=c1[nH]ccc2cc(OC3CCNCC3)ccc12 [SAR-407899 FREE BASE] | > 30 µM (inactive) | > 30 µM (inactive) | > 30 µM (inactive) | > 30 µM (inactive) | > 30 µM (inactive) | > 30 µM (inactive) | > 30 µM (inactive) | > 30 µM (inactive) | > 30 µM (inactive) | > 30 µM (inactive) | > 30 µM (inactive) |
| Cn1cc(-c2cnn3c(N)c(Br)c([C@@H]4CCCNC4)nc23)cn1 [SCH-900776] | > 30 µM (inactive) | > 30 µM (inactive) | > 30 µM (inactive) | > 30 µM (inactive) | 0.609 µM (active) | > 30 µM (inactive) | > 30 µM (inactive) | > 30 µM (inactive) | 0.005 µM | > 30 µM (inactive) | > 30 µM (inactive) |
